ChEMBL document CHEMBL1122363, “Synthesis and some pharmacological properties of oxytocin and vasopressin analogues with sarcosine or N-methyl-L-alanine in position 7” (1983)
The source made the active and inactive calls. The rule behind the calls is not given here. Positions of bridges follow the written chain, without caps; N, C: chain ends. Non-standard residues stand in square brackets, D forms with d. Residues, ends and D or L forms follow the SMILES beside them. NMeA = CN[C@@H](C)C(=O)O; Mpa = O=C(O)CCS; Sar = CNCC(=O)O

Columns and labels:
Rattus norvegicus [1] = species: Rattus norvegicus; assay: Uterotonic activity in vitro in isolated rat uterus in absence of magnesium; type: functional; parameters: unit not given here
Rattus norvegicus [2] = species: Rattus norvegicus; assay: The compound was tested for milk ejection activity in rat; type: functional; parameters: unit not given here
[3] = Tested for the ratio of uterotonic potency to antidiuretic potency(O/A); type: functional, Urine
Rattus norvegicus [4] = species: Rattus norvegicus; assay: Tested for antidiuretic activity in rat; type: functional, Urine; parameters: unit not given here
Rattus norvegicus [5] = species: Rattus norvegicus; assay: Uterotonic activity in vitro in isolated rat uterus in presence of magnesium; type: functional
Rattus norvegicus [6] = species: Rattus norvegicus; assay: Tested for vasopressor activity in rat; type: functional; parameters: unit not given here
Rattus norvegicus [7] = species: Rattus norvegicus; assay: Tested for vasopressor activity in rat; N-None; type: functional, organism-based
Rattus norvegicus [8] = species: Rattus norvegicus; assay: Tested for vasopressor activity in rat;N-None; type: functional, organism-based
[9] = Tested for the ratio of uterotonic potency to pressor potency(O/P); type: functional
[10] = Tested for the ratio of antidiuretic potency to uterotonic potency(A/O); type: functional, Urine
[11] = Tested for the ratio of antidiuretic potency to uterotonic potency(A/P); type: functional

## CC[C@H](C)[C@@H]1NC(=O)[C@H](Cc2ccc(O)cc2)NC(=O)[C@@H](N)CSSC[C@@H](C(=O)N(C)[C@@H](C)C(=O)N[C@@H](CC(C)C)C(=O)NCC(N)=O)NC(=O)[C@H](CC(N)=O)NC(=O)[C@H](CCC(N)=O)NC1=O
Rattus norvegicus [1]
  Activity: 62
Rattus norvegicus [2]
  Activity: 402
[3]
  Ratio: 620
Rattus norvegicus [4]
  Activity: 0.12
Rattus norvegicus [5]
  Activity: 184 IU/mg

## CC[C@H](C)[C@@H]1NC(=O)[C@H](Cc2ccc(O)cc2)NC(=O)[C@@H](N)CSSC[C@@H](C(=O)N[C@@H](C)C(=O)N[C@@H](CC(C)C)C(=O)NCC(N)=O)NC(=O)[C@H](CC(N)=O)NC(=O)[C@H](CCC(N)=O)NC1=O
Rattus norvegicus [1]
  Activity: 22
[3]
  Ratio: 275
Rattus norvegicus [6]
  Activity: 0.4
Rattus norvegicus [4]
  Activity: 0.08

## CC[C@H](C)[C@@H]1NC(=O)[C@H](Cc2ccc(O)cc2)NC(=O)[C@@H](N)CSSC[C@@H](C(=O)NCC(=O)N[C@@H](CC(C)C)C(=O)NCC(N)=O)NC(=O)[C@H](CC(N)=O)NC(=O)[C@H](CCC(N)=O)NC1=O
Rattus norvegicus [1]
  Activity: 93
Rattus norvegicus [2]
  Activity: 392
[3]
  Ratio: 16600
Rattus norvegicus [6]
  Activity: 0.01
Rattus norvegicus [4]
  Activity: 0.0056

## CC[C@H](C)[C@@H]1NC(=O)[C@H](Cc2ccc(O)cc2)NC(=O)CCSSC[C@@H](C(=O)N(C)CC(=O)N[C@@H](CC(C)C)C(=O)NCC(N)=O)NC(=O)[C@H](CC(N)=O)NC(=O)[C@H](CCC(N)=O)NC1=O
Rattus norvegicus [1]
  Activity: 745
Rattus norvegicus [2]
  Activity: 498
Rattus norvegicus [5]
  Activity: 1350 IU/mg

## CC[C@H](C)[C@@H]1NC(=O)[C@@H](Cc2ccc(O)cc2)NC(=O)CCSSC[C@@H](C(=O)N(C)CC(=O)N[C@@H](CC(C)C)C(=O)NCC(N)=O)NC(=O)[C@H](CC(N)=O)NC(=O)[C@@H](CCC(N)=O)NC1=O
Rattus norvegicus [7]
  Activity: inactive

## CC[C@H](C)[C@@H]1NC(=O)[C@@H](Cc2ccc(O)cc2)NC(=O)[C@H](N)CSSC[C@@H](C(=O)N(C)[C@@H](C)C(=O)N[C@@H](CC(C)C)C(=O)NCC(N)=O)NC(=O)[C@H](CC(N)=O)NC(=O)[C@@H](CCC(N)=O)NC1=O
Rattus norvegicus [8]
  Activity: inactive

## CC[C@H](C)[C@@H]1NC(=O)[C@@H](Cc2ccc(O)cc2)NC(=O)[C@H](N)CSSC[C@@H](C(=O)NCC(=O)N[C@@H](CC(C)C)C(=O)NCC(N)=O)NC(=O)[C@H](CC(N)=O)NC(=O)[C@@H](CCC(N)=O)NC1=O
[9]
  Ratio: 9300

## CC[C@H](C)[C@@H]1NC(=O)[C@@H](Cc2ccc(O)cc2)NC(=O)[C@H](N)CSSC[C@@H](C(=O)N[C@@H](C)C(=O)N[C@@H](CC(C)C)C(=O)NCC(N)=O)NC(=O)[C@H](CC(N)=O)NC(=O)[C@@H](CCC(N)=O)NC1=O
[9]
  Ratio: 55

## CC[C@H](C)[C@@H]1NC(=O)[C@H](Cc2ccc(O)cc2)NC(=O)CCSSC[C@H](C(=O)N2CCC[C@H]2C(=O)N[C@@H](CC(C)C)C(=O)NCC(N)=O)NC(=O)[C@H](CC(N)=O)NC(=O)[C@H](CCC(N)=O)NC1=O
[9]
  Ratio: 120

## NC(=O)CC[C@@H]1NC(=O)[C@H](Cc2ccccc2)NC(=O)[C@H](Cc2ccc(O)cc2)NC(=O)[C@@H](N)CSSC[C@@H](C(=O)NCC(=O)N[C@@H](CCCN=C(N)N)C(=O)NCC(N)=O)NC(=O)[C@H](CC(N)=O)NC1=O (H-CYFQNCGRG-NH2; disulfide 1-6)
Rattus norvegicus [2]
  Activity: 0.1
Rattus norvegicus [5]
  Activity: 0.01 IU/mg

## C[C@@H](C(=O)N[C@@H](CCCN=C(N)N)C(=O)NCC(N)=O)N(C)C(=O)[C@@H]1CSSC[C@H](N)C(=O)N[C@@H](Cc2ccc(O)cc2)C(=O)N[C@@H](Cc2ccccc2)C(=O)N[C@@H](CCC(N)=O)C(=O)N[C@@H](CC(N)=O)C(=O)N1 (H-CYFQNC[NMeA]RG-NH2; disulfide 1-6)
Rattus norvegicus [1]
  Activity: 343
Rattus norvegicus [2]
  Activity: 2.8
[10]
  Ratio: 122
Rattus norvegicus [6]
  Activity: 4.1
Rattus norvegicus [4]
  Activity: 35
Rattus norvegicus [5]
  Activity: 10.6 IU/mg
[11]
  Ratio: 32

## CN(CC(=O)N[C@@H](CCCN=C(N)N)C(=O)NCC(N)=O)C(=O)[C@@H]1CSSC[C@H](N)C(=O)N[C@@H](Cc2ccc(O)cc2)C(=O)N[C@@H](Cc2ccccc2)C(=O)N[C@@H](CCC(N)=O)C(=O)N[C@@H](CC(N)=O)C(=O)N1 (H-CYFQNC[Sar]RG-NH2; disulfide 1-6)
Rattus norvegicus [1]
  Activity: 188
Rattus norvegicus [2]
  Activity: 9.3
[10]
  Ratio: 20
Rattus norvegicus [6]
  Activity: 36
Rattus norvegicus [4]
  Activity: 110
Rattus norvegicus [5]
  Activity: 3.6 IU/mg
[11]
  Ratio: 52

## CC[C@H](C)[C@@H]1NC(=O)[C@H](Cc2ccc(O)cc2)NC(=O)[C@@H](N)CSSC[C@@H](C(=O)N(C)CC(=O)N[C@@H](CC(C)C)C(=O)NCC(N)=O)NC(=O)[C@H](CC(N)=O)NC(=O)[C@H](CCC(N)=O)NC1=O (H-CYIQNC[Sar]LG-NH2; disulfide 1-6)
Rattus norvegicus [1]
  Activity: 459
Rattus norvegicus [2]
  Activity: 564
[3]
  Ratio: 2550
Rattus norvegicus [4]
  Activity: 0.18
Rattus norvegicus [5]
  Activity: 609 IU/mg

## C[C@@H](C(=O)N[C@@H](CCCN=C(N)N)C(=O)NCC(N)=O)N(C)C(=O)[C@@H]1CSSCCC(=O)N[C@@H](Cc2ccc(O)cc2)C(=O)N[C@@H](Cc2ccccc2)C(=O)N[C@@H](CCC(N)=O)C(=O)N[C@@H](CC(N)=O)C(=O)N1 ([Mpa]YFQNC[NMeA]RG-NH2; disulfide 1-6)
Rattus norvegicus [1]
  Activity: 113
Rattus norvegicus [2]
  Activity: 1.7
[10]
  Ratio: 78
Rattus norvegicus [6]
  Activity: 8
Rattus norvegicus [4]
  Activity: 35
Rattus norvegicus [5]
  Activity: 1.3 IU/mg
[11]
  Ratio: 102

## CN(CC(=O)N[C@@H](CCCN=C(N)N)C(=O)NCC(N)=O)C(=O)[C@@H]1CSSCCC(=O)N[C@@H](Cc2ccc(O)cc2)C(=O)N[C@@H](Cc2ccccc2)C(=O)N[C@@H](CCC(N)=O)C(=O)N[C@@H](CC(N)=O)C(=O)N1 ([Mpa]YFQNC[Sar]RG-NH2; disulfide 1-6)
Rattus norvegicus [1]
  Activity: 580
Rattus norvegicus [2]
  Activity: 38.2
[10]
  Ratio: 15
Rattus norvegicus [6]
  Activity: 49
Rattus norvegicus [4]
  Activity: 193
Rattus norvegicus [5]
  Activity: 0.84 IU/mg
[11]
  Ratio: 690

## CC[C@H](C)[C@@H]1NC(=O)[C@H](Cc2ccc(O)cc2)NC(=O)CCSSC[C@@H](C(=O)N(C)[C@@H](C)C(=O)N[C@@H](CC(C)C)C(=O)NCC(N)=O)NC(=O)[C@H](CC(N)=O)NC(=O)[C@H](CCC(N)=O)NC1=O ([Mpa]YIQNC[NMeA]LG-NH2; disulfide 1-6)
Rattus norvegicus [1]
  Activity: 98
Rattus norvegicus [2]
  Activity: 157
Rattus norvegicus [5]
  Activity: 274 IU/mg

## CC[C@H](C)[C@@H]1NC(=O)[C@H](Cc2ccc(O)cc2)NC(=O)CCSSC[C@@H](C(=O)N2CCC[C@H]2C(=O)N[C@@H](CC(C)C)C(=O)NCC(N)=O)NC(=O)[C@H](CC(N)=O)NC(=O)[C@H](CCC(N)=O)NC1=O [DEMOXYTOCIN]
[3]
  Ratio: 130

## N=C(N)NCCC[C@H](NC(=O)[C@@H]1CCCN1C(=O)[C@@H]1CSSCCC(=O)N[C@@H](Cc2ccc(O)cc2)C(=O)N[C@@H](Cc2ccccc2)C(=O)N[C@@H](CCC(N)=O)C(=O)N[C@@H](CC(N)=O)C(=O)N1)C(=O)NCC(N)=O [DESMOPRESSIN]
[10]
  Ratio: 60
Rattus norvegicus [5]
  Activity: 346 IU/mg
[11]
  Ratio: 5

## CC[C@H](C)[C@@H]1NC(=O)[C@H](Cc2ccc(O)cc2)NC(=O)[C@@H](N)CSSC[C@@H](C(=O)N2CCC[C@H]2C(=O)N[C@@H](CC(C)C)C(=O)NCC(N)=O)NC(=O)[C@H](CC(N)=O)NC(=O)[C@H](CCC(N)=O)NC1=O [OXYTOCIN]
[9]
  Ratio: 120
Rattus norvegicus [5]
  Activity: 486 IU/mg
